Data: paper PMC11822212, “High-throughput screening identifies Aurora kinase B as a critical therapeutic target for Merkel cell carcinoma” (Nature Communications, 2025)

Columns and labels:
Type in all cases: cell-based, human
[1] = tested on: MKL-2 cells (VP-MCC); assay: qHTS cell viability (CellTiter-Glo, 72 h; primary and follow-up small molecule screen); conditions: MKL2, 72h
[2] = tested on: GDSC cancer cell lines; assay: Genomics of Drug Sensitivity in Cancer (GDSC) IC50 comparison across cancer cell lines; conditions: own IC50 estimates compared with public IC50 data
Experimental: Palo Alto, CA, USA) for these compounds from our small molecule screen. Following the graphing format in the GDSC database, compounds were ranked by IC50 and plotted in Rstudio using ggplot2, ggrepel, and scales packages. page 9: Supplementary Fig. S6. Au rora kinase inhibi tors mor e potentl y reduc e viability in VP-MCC than VN-MCC. […] Cell viability was measured by CellTiter- Glo at 72 h and by manual cell counts at 144 h. […] Consistent across n = 3 replicates . B) IC50 values (molar) for each aurora kinase inhibitor in each MCC cell line. […] IC50 values from GDSC (Gray-scale and green) were combined with IC50 values determined in our study (purple) and then ranked. n = number of experimental replicates for each cell line.

[3] = tested on: VP-MCC cell lines (WAGA, MKL-1, MKL-2); assay: qHTS cell viability, VP-MCC cell lines as a group (mean AUC, VP.MCC.avg); conditions: re-tested in triplicate, follow-up screen
[4] = tested on: WAGA cells (VP-MCC); assay: qHTS cell viability (CellTiter-Glo, 72 h; primary and follow-up small molecule screen); conditions: WAGA, 72h
[5] = tested on: UISO cells (VN-MCC); assay: as above; conditions: UISO, 72h
[6] = tested on: MCC26 cells (VN-MCC); assay: as above; conditions: MCC26, 72h
[7] = tested on: MCC13 cells (VN-MCC); assay: as above; conditions: MCC13, 72h
[8] = tested on: MKL-1 cells (VP-MCC); assay: as above; conditions: MKL1, 72h

Compound: CCn1cc(-c2ccnc3[nH]c(-c4cccc(CN(C)C)c4)cc23)c(-c2ccc(NC(=O)N(C)C)cc2)n1 [GSK-1070916A, reference compound]
- Percent viability ([1]; Log (M) -5.33646): 1.0%
- Percent viability ([1]; Log (M) -5.81358): 2.3%
- Percent viability ([1]; Log (M) -6.2907): 21.5%
- Percent viability ([1]; Log (M) -6.76782): 34.0%
- Percent viability ([1]; Log (M) -7.24494): 33.8%
- Percent viability ([1]; Log (M) -7.72207): 50.1%
- Percent viability ([1]; Log (M) -8.19919): 59.6%
- Percent viability ([1]; Log (M) -8.67631): 59.6%
- Percent viability ([1]; Log (M) -9.15343): 98.0%
- Percent viability ([1]; Log (M) -9.63055): 107.1%
- Percent viability ([1]; Log (M) -10.1077): 88.8%
- potency in VP-MCC cell lines versus other human cancer cell lines (GDSC) [2]: higher in VP-MCC cell lines than in hundreds of other human cancer cell lines
- VP-MCC viability (in words) [3]: consistently and potently reduced VP-MCC viability
- Percent viability ([4]; Log (M) -5.33646): 2.1%
- Percent viability ([4]; Log (M) -5.81358): 12.6%
- Percent viability ([4]; Log (M) -6.2907): 31.4%
- Percent viability ([4]; Log (M) -6.76782): 40.3%
- Percent viability ([4]; Log (M) -7.24494): 26.0%
- Percent viability ([4]; Log (M) -7.72207): 27.1%
- Percent viability ([4]; Log (M) -8.19919): 28.3%
- Percent viability ([4]; Log (M) -8.67631): 104.6%
- Percent viability ([4]; Log (M) -9.15343): 100.0%
- Percent viability ([4]; Log (M) -9.63055): 103.0%
- Percent viability ([4]; Log (M) -10.1077): 100.0%
- Percent viability ([5]; Log (M) -5.33646): 0.3%
- Percent viability ([5]; Log (M) -5.81358): 33.6%
- Percent viability ([5]; Log (M) -6.2907): 52.9%
- Percent viability ([5]; Log (M) -6.76782): 71.1%
- Percent viability ([5]; Log (M) -7.24494): 86.6%
- Percent viability ([5]; Log (M) -7.72207): 91.6%
- Percent viability ([5]; Log (M) -8.19919): 90.7%
- Percent viability ([5]; Log (M) -8.67631): 81.3%
- Percent viability ([5]; Log (M) -9.15343): 106.7%
- Percent viability ([5]; Log (M) -9.63055): 103.4%
- Percent viability ([5]; Log (M) -10.1077): 104.7%
- Percent viability ([6]; Log (M) -5.33646): 11.3%
- Percent viability ([6]; Log (M) -5.81358): 9.7%
- Percent viability ([6]; Log (M) -6.2907): 42.5%
- Percent viability ([6]; Log (M) -6.76782): 75.5%
- Percent viability ([6]; Log (M) -7.24494): 88.6%
- Percent viability ([6]; Log (M) -7.72207): 92.0%
- Percent viability ([6]; Log (M) -8.19919): 93.6%
- Percent viability ([6]; Log (M) -8.67631): 92.5%
- Percent viability ([6]; Log (M) -9.15343): 92.1%
- Percent viability ([6]; Log (M) -9.63055): 87.6%
- Percent viability ([6]; Log (M) -10.1077): 89.3%
- Percent viability ([7]; Log (M) -5.33646): 0.9%
- Percent viability ([7]; Log (M) -5.81358): 37.2%
- Percent viability ([7]; Log (M) -6.2907): 74.5%
- Percent viability ([7]; Log (M) -6.76782): 88.4%
- Percent viability ([7]; Log (M) -7.24494): 96.7%
- Percent viability ([7]; Log (M) -7.72207): 113.8%
- Percent viability ([7]; Log (M) -8.19919): 87.1%
- Percent viability ([7]; Log (M) -8.67631): 100.5%
- Percent viability ([7]; Log (M) -9.15343): 112.0%
- Percent viability ([7]; Log (M) -9.63055): 98.4%
- Percent viability ([7]; Log (M) -10.1077): 100.0%
- Percent viability ([8]; Log (M) -5.33646): 0.6%
- Percent viability ([8]; Log (M) -5.81358): 0.7%
- Percent viability ([8]; Log (M) -6.2907): 25.3%
- Percent viability ([8]; Log (M) -6.76782): 39.6%
- Percent viability ([8]; Log (M) -7.24494): 24.8%
- Percent viability ([8]; Log (M) -7.72207): 28.8%
- Percent viability ([8]; Log (M) -8.19919): 32.4%
- Percent viability ([8]; Log (M) -8.67631): 60.3%
- Percent viability ([8]; Log (M) -9.15343): 97.5%
- Percent viability ([8]; Log (M) -9.63055): 94.1%
- Percent viability ([8]; Log (M) -10.1077): 98.1%
